Several values for one entry are separate records, joined by “and”; a condition that tells them apart may be missing. Equal values may be shown once. Toxic doses and inconclusive results are not listed. The calls were made as follows: active = survival T/C of 150% or more; inactive = T/C below 125% in these data.
Tested on: CD2F1 mice, L1210 leukemia ip, survival T/C
Assay: NCI In Vivo Anticancer Drug Screen. Data for tumor model L1210 Leukemia (intraperitoneal) in CD2F1 (CDF1) mice
Conditions: higher = longer survival
How it was run: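 Implant tumor; dose compound or vehicle; measure endpoint in both groups; report treated divided by control.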

[1] = endpoint: mean survival time, dose: 100.0 mg/kg/injection, schedule: Q01DX001 (ip), vehicle: saline with Tween-80
[2] = endpoint: mean survival time, dose: 200.0 mg/kg/injection, schedule: Q01DX001 (ip), vehicle: saline with Tween-80
[3] = endpoint: mean survival time, dose: 100.0 mg/kg/injection, schedule: Q01DX009 (ip), vehicle: saline with Tween-80
[4] = endpoint: mean survival time, dose: 200.0 mg/kg/injection, schedule: Q01DX009 (ip), vehicle: saline with Tween-80
[5] = endpoint: mean survival time, dose: 400.0 mg/kg/injection, schedule: Q01DX009 (ip), vehicle: saline with Tween-80
[6] = endpoint: mean survival time, dose: 100.0 mg/kg/injection, schedule: Q04DX003 (ip), vehicle: saline with Tween-80
[7] = endpoint: mean survival time, dose: 200.0 mg/kg/injection, schedule: Q04DX003 (ip), vehicle: saline with Tween-80
[8] = endpoint: mean survival time, dose: 400.0 mg/kg/injection, schedule: Q04DX003 (ip), vehicle: saline with Tween-80
[9] = endpoint: mean survival time, dose: 25.0 mg/kg/injection, schedule: Q04DX003 (ip), vehicle: saline with Tween-80
[10] = endpoint: mean survival time, dose: 50.0 mg/kg/injection, schedule: Q04DX003 (ip), vehicle: saline with Tween-80
[11] = endpoint: mean survival time, dose: 50.0 mg/kg/injection, schedule: Q01DX009 (ip), vehicle: saline with Tween-80

Measured: T/C

OC12CC3CC(CC(C3)C1)C2
inactive: endpoint: mean survival time, dose: 50.0 mg/kg/injection, schedule: Q01DX001 (ip), vehicle: saline with Tween-80 104 % of control | [1] 116 % of control | [2] 98 % of control

Cc1ccc(S(=O)(=O)OC2COC3C(OS(=O)(=O)c4ccc(C)cc4)COC23)cc1 (centres undefined)
inactive: [1] 93 % of control | [2] 89 % of control | endpoint: mean survival time, dose: 400.0 mg/kg/injection, schedule: Q01DX001 (ip), vehicle: saline with Tween-80 88 % of control

COc1cn(C2OC(CO)C(O)C2O)c(=O)nc1N (centres undefined)
inactive: endpoint: median survival time, dose: 25.0 mg/kg/injection, schedule: Q01DX005 (ip), vehicle: saline 114 % of control | endpoint: median survival time, dose: 50.0 mg/kg/injection, schedule: Q01DX005 (ip), vehicle: saline 111 % of control | endpoint: median survival time, dose: 100.0 mg/kg/injection, schedule: Q01DX005 (ip), vehicle: saline 114 % of control

COC(=O)c1cccc(N=NN(C)C)c1
inactive: endpoint: mean survival time, dose: 23.0 mg/kg/injection, schedule: Q01DX009 (ip), vehicle: Klucel (hydroxypropylcellulose) (HPC) 108 % of control | endpoint: mean survival time, dose: 39.0 mg/kg/injection, schedule: Q01DX009 (ip), vehicle: Klucel (hydroxypropylcellulose) (HPC) 98 % of control | endpoint: mean survival time, dose: 65.0 mg/kg/injection, schedule: Q01DX009 (ip), vehicle: Klucel (hydroxypropylcellulose) (HPC) 97 % of control | endpoint: mean survival time, dose: 108.0 mg/kg/injection, schedule: Q01DX009 (ip), vehicle: Klucel (hydroxypropylcellulose) (HPC) 104 % of control

O=C(NC(CO)C(O)c1ccc([N+](=O)[O-])cc1)C(Cl)Cl (centres undefined)
inactive: [3] 96 % of control | [4] 104 % of control | [5] 110 % of control

NNc1ncnc2c1ccn2C1OC(CO)C(O)C1O (centres undefined)
inactive: endpoint: mean survival time, dose: 35.0 mg/kg/injection, schedule: Q01DX001 (ip), vehicle: saline 116 % of control | endpoint: mean survival time, dose: 53.0 mg/kg/injection, schedule: Q01DX001 (ip), vehicle: saline 110 % of control | endpoint: mean survival time, dose: 80.0 mg/kg/injection, schedule: Q01DX001 (ip), vehicle: saline 112 % of control | endpoint: mean survival time, dose: 120.0 mg/kg/injection, schedule: Q01DX001 (ip), vehicle: saline 116 % of control

CCCCCCCCCCCCCC[N+](C)(C)CC#CC[N+](C)(C)CCCCCCCCCCCCCC
inactive: endpoint: mean survival time, dose: 25.0 mg/kg/injection, schedule: Q04DX002 (ip), vehicle: saline with Tween-80 104 % of control | endpoint: mean survival time, dose: 50.0 mg/kg/injection, schedule: Q04DX002 (ip), vehicle: saline with Tween-80 89 % of control

O=C(CC(O)(C(F)(F)F)C(F)(F)F)c1cccc(Cl)c1
inactive: [3] 107 % of control | [6] 105 % of control | [4] 103 % of control | [7] 105 % of control | [5] 119 % of control | [8] 110 % of control

C=C1CC(=O)N(c2ccc(OC)cc2)C1=O
inactive: [9] 100 % of control | [10] 107 % of control | [6] 104 % of control

S=C(N/N=C/c1ccccn1)N/N=C/c1ccccn1
inactive: endpoint: mean survival time, dose: 20.0 mg/kg/injection, schedule: Q01DX009 (ip), vehicle: saline with Tween-80 102 % of control | endpoint: mean survival time, dose: 33.0 mg/kg/injection, schedule: Q01DX009 (ip), vehicle: saline with Tween-80 117 % of control | [11] 113 % of control | endpoint: mean survival time, dose: 75.0 mg/kg/injection, schedule: Q01DX009 (ip), vehicle: saline with Tween-80 119 % of control and 101 % of control

O=C(O)CN1C(=O)CNC12CCCCC2
inactive: endpoint: mean survival time, dose: 100.0 mg/kg/injection, schedule: Q04DX003 (ip), vehicle: other 102 % of control | endpoint: mean survival time, dose: 200.0 mg/kg/injection, schedule: Q04DX003 (ip), vehicle: other 88 % of control | endpoint: mean survival time, dose: 400.0 mg/kg/injection, schedule: Q04DX003 (ip), vehicle: other 104 % of control

O=C([O-])[O-].O=[N+]([O-])O.[Co+3].[NH2-].[NH2-].[NH2-].[NH2-]
inactive: [5] 93 % of control | [8] 94 % of control

c1ccc(Cc2ccccn2)nc1
inactive: endpoint: mean survival time, dose: 100.0 mg/kg/injection, schedule: Q01DX009 (ip), vehicle: saline 110 % of control | endpoint: mean survival time, dose: 200.0 mg/kg/injection, schedule: Q01DX009 (ip), vehicle: saline 101 % of control | endpoint: mean survival time, dose: 400.0 mg/kg/injection, schedule: Q01DX009 (ip), vehicle: saline 90 % of control

O=c1[nH][nH]c(=O)c2c1ncn2C1OC(CO)C(O)C1O (centres undefined)
inactive: endpoint: mean survival time, dose: 12.5 mg/kg/injection, schedule: Q01DX005 (ip), vehicle: water 101 % of control | endpoint: mean survival time, dose: 25.0 mg/kg/injection, schedule: Q01DX005 (ip), vehicle: water 100 % of control | endpoint: mean survival time, dose: 50.0 mg/kg/injection, schedule: Q01DX005 (ip), vehicle: water 101 % of control | endpoint: mean survival time, dose: 100.0 mg/kg/injection, schedule: Q01DX005 (ip), vehicle: water 101 % of control | endpoint: mean survival time, dose: 200.0 mg/kg/injection, schedule: Q01DX005 (ip), vehicle: water 100 % of control

CCCC/C=C\C(=O)OCC
inactive: [11] 104 % of control | [3] 101 % of control | [4] 104 % of control

O=C(N/N=C/c1ccccc1)c1ccc(Cl)c(Cl)c1
inactive: endpoint: mean survival time, dose: 100.0 mg/kg/injection, schedule: Q01DX009 (ip), vehicle: Klucel (hydroxypropylcellulose) (HPC) 105 % of control | endpoint: mean survival time, dose: 200.0 mg/kg/injection, schedule: Q01DX009 (ip), vehicle: Klucel (hydroxypropylcellulose) (HPC) 101 % of control | endpoint: mean survival time, dose: 400.0 mg/kg/injection, schedule: Q01DX009 (ip), vehicle: Klucel (hydroxypropylcellulose) (HPC) 101 % of control

CSC(=S)N/N=C/c1ccccc1O
inactive: endpoint: mean survival time, dose: 12.5 mg/kg/injection, schedule: Q01DX009 (ip), vehicle: saline with Tween-80 95 % of control | endpoint: mean survival time, dose: 12.5 mg/kg/injection, schedule: Q04DX003 (ip), vehicle: saline with Tween-80 100 % of control | endpoint: mean survival time, dose: 25.0 mg/kg/injection, schedule: Q01DX009 (ip), vehicle: saline with Tween-80 87 % of control | [9] 97 % of control | [10] 95 % of control

Nc1ccc2c(Cl)cc(Cl)cc2c1
inactive: [11] 102 % of control | [3] 103 % of control | [6] 98 % of control | [4] 96 % of control | [7] 91 % of control

O=C(NCCF)NC1CCSc2ccccc21 (centres undefined)
inactive: endpoint: mean survival time, dose: 75.0 mg/kg/injection, schedule: Q01DX001 (ip), vehicle: other 101 % of control | endpoint: mean survival time, dose: 150.0 mg/kg/injection, schedule: Q01DX001 (ip), vehicle: other 103 % of control

Nc1ncnc2c1ncn2C1CC(O)C(O)CO1 (centres undefined)
inactive: endpoint: mean survival time, dose: 100.0 mg/kg/injection, schedule: Q01DX001 (ip), vehicle: saline 103 % of control | endpoint: mean survival time, dose: 200.0 mg/kg/injection, schedule: Q01DX001 (ip), vehicle: saline 105 % of control | endpoint: mean survival time, dose: 400.0 mg/kg/injection, schedule: Q01DX001 (ip), vehicle: saline 105 % of control

c1ccc2c(c1)ccn2CCCCn1ccc2ccccc21
inactive: [11] 101 % of control | [3] 101 % of control | [4] 101 % of control

CC(=O)N(CCCCCCN(N=O)C(C)=O)N=O
inactive: endpoint: mean survival time, dose: 75.0 mg/kg/injection, schedule: Q01DX001 (ip), vehicle: saline 110 % of control | endpoint: mean survival time, dose: 150.0 mg/kg/injection, schedule: Q01DX001 (ip), vehicle: saline 122 % of control | endpoint: mean survival time, dose: 300.0 mg/kg/injection, schedule: Q01DX001 (ip), vehicle: saline 116 % of control

CCOC(=O)c1cc(C)nc2c(Cl)cc(Cl)cc12
inactive: [3] 87 % of control | [6] 87 % of control | [4] 87 % of control | [7] 88 % of control | [8] 86 % of control

CNC(=S)N(C1CCCCC1)C1CCCCC1
inactive: [6] 111 % of control | [7] 96 % of control | [8] 94 % of control

CC[C@@H](O)C[C@H]1CCC[C@@]2(C[C@@H]3OC(=O)/C=C/[C@@](C)(O)[C@@H](O)[C@H](C)[C@@H](O)[C@H](OC4CCC(N(C)C)C(C)O4)[C@@H](O)[C@](C)(O)CCCCC/C=C/[C@@H]4CC(C)(C)O[C@@]4(O)C[C@H](O2)[C@H]3C)O1 (some centres undefined)
inactive: endpoint: mean survival time, dose: 0.25 mg/kg/injection, schedule: Q01DX009 (ip), vehicle: saline 109 % of control

Reference: PubChem BioAssay AID256 (DTP/NCI, 2004)
